What was measured:
Oral availability = details: in vivo
gpIIbIIIa = target: T1, gpIIbIIIa (Homo sapiens, UniProt P05106+P08514); assay: Platelet aggregation induced by ADP in platelet rich plasma; format: cell-based
T1 construct: from tissue; host or cells: platelet rich plasma
Procedure: Activity against gpIIbIIIa was assessed by means of standard platelet aggregometry using platelet rich plasma. ADP was used to initiate aggregation in the presence of plasma where Ca^+2 and Mg^+2 are the major divalent cations. GRGDSP @ 100 ug/mL was used as a positive control.

VLA-4 [1] = target: T2, VLA-4 (Homo sapiens, UniProt P05556+P13612); assay: VCAM-Ig Competitive Binding Assay on human PBLs; set-up: endogenous in cells; details: Mn+2
T2 sequence (P13612 34-1032): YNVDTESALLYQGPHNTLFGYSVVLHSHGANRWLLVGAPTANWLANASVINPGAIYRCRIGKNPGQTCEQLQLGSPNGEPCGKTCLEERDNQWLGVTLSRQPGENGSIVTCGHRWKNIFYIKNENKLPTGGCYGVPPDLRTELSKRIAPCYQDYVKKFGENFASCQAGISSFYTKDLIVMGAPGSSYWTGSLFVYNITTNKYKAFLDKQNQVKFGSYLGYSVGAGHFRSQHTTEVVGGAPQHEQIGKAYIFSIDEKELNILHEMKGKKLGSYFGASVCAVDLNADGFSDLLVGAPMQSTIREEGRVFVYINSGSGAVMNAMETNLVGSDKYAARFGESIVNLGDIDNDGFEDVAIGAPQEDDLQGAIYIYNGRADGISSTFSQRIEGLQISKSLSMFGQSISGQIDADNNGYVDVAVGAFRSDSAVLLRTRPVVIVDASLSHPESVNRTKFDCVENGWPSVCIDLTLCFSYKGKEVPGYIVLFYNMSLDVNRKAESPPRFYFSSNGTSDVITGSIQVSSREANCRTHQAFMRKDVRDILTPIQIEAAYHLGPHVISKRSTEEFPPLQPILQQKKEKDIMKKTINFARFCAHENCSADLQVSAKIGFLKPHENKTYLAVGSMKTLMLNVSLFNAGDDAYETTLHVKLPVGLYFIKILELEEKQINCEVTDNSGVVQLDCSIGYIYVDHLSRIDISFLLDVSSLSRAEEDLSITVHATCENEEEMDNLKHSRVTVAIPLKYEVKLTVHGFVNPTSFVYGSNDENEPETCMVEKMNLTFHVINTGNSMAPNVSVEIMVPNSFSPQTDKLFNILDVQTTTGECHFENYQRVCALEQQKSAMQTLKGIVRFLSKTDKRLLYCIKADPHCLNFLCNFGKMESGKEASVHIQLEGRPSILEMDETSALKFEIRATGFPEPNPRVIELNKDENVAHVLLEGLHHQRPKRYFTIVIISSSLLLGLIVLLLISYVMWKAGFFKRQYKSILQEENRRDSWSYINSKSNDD
T2 sequence (P05556 21-798): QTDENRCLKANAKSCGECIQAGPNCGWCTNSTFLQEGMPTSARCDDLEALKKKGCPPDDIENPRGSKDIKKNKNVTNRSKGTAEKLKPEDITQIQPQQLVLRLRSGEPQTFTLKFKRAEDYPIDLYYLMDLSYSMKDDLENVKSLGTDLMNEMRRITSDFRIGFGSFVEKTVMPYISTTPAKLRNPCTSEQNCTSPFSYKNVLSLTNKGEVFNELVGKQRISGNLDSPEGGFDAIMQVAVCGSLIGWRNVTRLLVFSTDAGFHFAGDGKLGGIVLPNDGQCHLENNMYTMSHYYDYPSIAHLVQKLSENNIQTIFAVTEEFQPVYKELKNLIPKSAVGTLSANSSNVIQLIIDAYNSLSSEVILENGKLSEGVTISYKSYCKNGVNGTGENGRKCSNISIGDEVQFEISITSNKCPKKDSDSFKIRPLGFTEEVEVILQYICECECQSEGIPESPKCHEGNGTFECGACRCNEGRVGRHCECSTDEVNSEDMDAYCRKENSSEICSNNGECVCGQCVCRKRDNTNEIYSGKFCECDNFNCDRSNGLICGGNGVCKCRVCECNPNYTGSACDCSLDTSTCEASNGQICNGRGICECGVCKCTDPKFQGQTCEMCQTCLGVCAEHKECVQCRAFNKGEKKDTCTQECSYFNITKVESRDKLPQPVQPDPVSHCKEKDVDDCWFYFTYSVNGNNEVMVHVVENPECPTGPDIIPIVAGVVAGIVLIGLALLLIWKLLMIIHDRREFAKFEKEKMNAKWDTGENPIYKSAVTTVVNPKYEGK
From the text: PBLs, were isolated from peripheral blood of humans, sheep and dogs using methods described for sheep PBL (Abraham, W. M. et al. J. Clin. Invest. 93:776-787, 1994). The VCAM-Ig-AP Competitive Binding Assay was used to compare the binding of oMePUPA-V to these different cell types.

VLA-4 [2] = target: T2, VLA-4; assay: VCAM-Ig Direct Binding Assay (DBA) on Jurkat cells; set-up: endogenous in cells; host or cells: Jurkat (human T cell line)
From the text: (§1) A direct binding assay may also be employed to quantitate the inhibitory activity of the compounds of this invention. In this assay, a VCAM-IgG fusion protein containing the first two immunoglobulin domains of VCAM (D1D2) attached above the hinge region of an IgG1 molecule (“VCAM 2D-IgG”), is conjugated to a marker enzyme, such as alkaline phosphatase (“AP”). The synthesis of this VCAM-IgG fusion is described in PCT publication WO 90/13300, the disclosure of which is herein incorporated by reference. The conjugation of that fusion to a marker enzyme is achieved by cross-linking methods well-known in the art.
The VCAM-IgG enzyme conjugate is then placed in the wells of a multi-well filtration plate, such as that contained in the Millipore Multiscreen Assay System (Millipore Corp., Bedford, Ma.). Varying concentrations of the test inhibitory compound are then added to the wells followed by addition of VLA-4-expressing cells. […]
(§2) Following incubation, the wells are vacuum drained, leaving behind the cells and any bound VCAM. Quantitation of bound VCAM is determined by adding an appropriate colorimetric substrate for the enzyme conjugated to VCAM-IgG and determining the amount of reaction product. […]
VCAM-Ig was constructed and purified as published (Jakubowski, A. et al. Cell Adhesion and Communication 3:131-142, 1995). […] Binding to VLA-4 was assessed on the human T cell line, Jurkat (α4β1). […]

human ACE = target: T3, human ACE (Homo sapiens, UniProt P12821); assay: ACE protease activity (Cerep, HUVEC, 3H-HGG conversion); format: biochemical
T3 construct: The source of ACE proteases was human endothelial cells (HUVEC); host or cells: HUVEC (human endothelial cells)
T3 sequence (P12821 30-1306): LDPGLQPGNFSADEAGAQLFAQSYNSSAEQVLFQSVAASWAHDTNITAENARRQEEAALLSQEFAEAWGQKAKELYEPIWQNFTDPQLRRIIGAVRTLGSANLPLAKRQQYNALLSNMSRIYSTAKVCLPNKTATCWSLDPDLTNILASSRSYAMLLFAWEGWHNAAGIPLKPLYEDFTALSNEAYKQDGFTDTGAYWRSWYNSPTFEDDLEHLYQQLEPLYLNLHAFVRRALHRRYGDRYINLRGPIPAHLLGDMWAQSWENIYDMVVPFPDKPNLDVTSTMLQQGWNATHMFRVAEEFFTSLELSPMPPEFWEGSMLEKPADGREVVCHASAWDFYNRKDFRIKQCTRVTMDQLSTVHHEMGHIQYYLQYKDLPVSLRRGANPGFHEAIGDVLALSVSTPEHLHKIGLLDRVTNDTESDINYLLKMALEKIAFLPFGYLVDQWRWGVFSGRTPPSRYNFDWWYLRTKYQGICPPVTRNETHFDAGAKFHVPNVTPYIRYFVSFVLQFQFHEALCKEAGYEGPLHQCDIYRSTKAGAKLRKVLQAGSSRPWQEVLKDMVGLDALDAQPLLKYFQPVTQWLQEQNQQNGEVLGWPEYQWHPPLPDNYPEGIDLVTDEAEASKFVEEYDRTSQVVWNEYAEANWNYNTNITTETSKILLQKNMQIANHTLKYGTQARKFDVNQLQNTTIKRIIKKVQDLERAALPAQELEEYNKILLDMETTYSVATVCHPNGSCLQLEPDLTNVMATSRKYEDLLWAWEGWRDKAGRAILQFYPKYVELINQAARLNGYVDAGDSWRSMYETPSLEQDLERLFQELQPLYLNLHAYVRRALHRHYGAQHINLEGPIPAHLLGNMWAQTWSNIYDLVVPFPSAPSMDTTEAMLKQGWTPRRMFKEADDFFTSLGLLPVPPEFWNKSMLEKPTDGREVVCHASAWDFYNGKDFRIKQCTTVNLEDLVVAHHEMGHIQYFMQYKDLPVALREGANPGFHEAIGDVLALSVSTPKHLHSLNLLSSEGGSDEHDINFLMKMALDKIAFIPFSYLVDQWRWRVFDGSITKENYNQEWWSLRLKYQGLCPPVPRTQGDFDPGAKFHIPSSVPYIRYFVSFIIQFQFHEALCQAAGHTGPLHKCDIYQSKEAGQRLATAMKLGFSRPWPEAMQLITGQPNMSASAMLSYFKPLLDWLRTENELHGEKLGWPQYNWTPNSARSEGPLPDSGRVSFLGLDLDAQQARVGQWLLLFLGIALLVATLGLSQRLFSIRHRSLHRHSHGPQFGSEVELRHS
From the text: The source of ACE proteases was human endothelial cells (HUVEC). ^3H-HGG, added to HUVEC, was converted to ^3H-hippuric acid and glycylglycine by ACE.

VLA-4 [3] = target: T2, VLA-4; assay: VLA-4-VCAM-Ig binding (Table 1; VLA-4 binding assays); set-up: endogenous in cells; host or cells: Jurkat (human T cell line); details: read-out: IC50 against VLA-4-VCAM-Ig binding
From the text: as §1
The VCAM-IgG enzyme conjugate is then placed in the wells of a multi-well filtration plate, such as that contained in the Millipore Multiscreen Assay System (Millipore Corp., Bedford, Ma.). Varying concentrations of the test inhibitory compound are then added to the wells followed by addition of VLA-4-expressing cells. The cells, compound and VCAM-IgG enzyme conjugate are mixed together and allowed to incubate at room temperature.
as §2, with “product. Decreased reaction product indicates increased binding inhibitory activity.” for “product.”

[4] = tested on: panel of radioligand, enzyme, and functional assays; assay: Panlabs ProfilingScreen, DiscoveryScreen, Immunoscreen and Cerep membrane receptor panel
Procedure: oMePUPA-V was tested in the Panlabs ProfilingScreen, DiscoveryScreen, and Immunoscreen panel of radioligand, enzyme, and functional assays and in the Cerep membrane receptor panel.

[5] = Formulated / solution stability (HPLC); format: physicochemical
Crystallinity = format: physicochemical
VLA-4 [6] = target: T2, VLA-4; assay: Purified VLA-4 Protein/Protein Assay with VCAM-Ig-AP; format: binding; set-up: endogenous in cells; host or cells: Jurkat (human T cell line)
Procedure: VLA-4 was purified from a detergent extract of a high expressing subclone of α4-transfected K562 cells by antibody affinity chromatography and immobilized on microtiter wells to establish a protein/protein competitive binding assay. VCAM-Ig-AP was bound to the purified VLA-4-coated plate in the absence or presence of oMePUPA-V (Lot #2) and 1 mM MnCl2. Plates were read at 405 nm and the data were analyzed using SoftMax v. 2.32 software.

VLA-4 [7] = target: T4, VLA-4 (Mus musculus, UniProt P09055+Q00651); assay: VCAM-Ig Competitive Binding Assay on mouse splenocytes; details: Mn+2
T4 construct: from tissue; host or cells: mouse spleen cells

[8] = tested on: Ascaris suum-sensitive sheep; assay: Single dose irritancy, airways resistance after aerosol in sheep; format: in vivo; details: single aerosol doses 0.01-3 mg
Procedure: FIG. 2: Sheep, naturally sensitive to Ascaris suum, were challenged with an aerosol administration of oMePUPA-V at the doses indicated or an aerosol of Ascaris suum. Changes in airways resistance were measured following aerosol challenge and peak specific lung resistance (cm H2O/sec) after challenge was compared to baseline values. *=p<0.05 compared to PBS control, one-way analysis of variance, followed by Dunnett's test for multiple comparison to a control group. Indicates a statistically significant increase in peak specific lung resistance compared to PBS control group.

T1 sequence (P08514 32-887 limits assumed): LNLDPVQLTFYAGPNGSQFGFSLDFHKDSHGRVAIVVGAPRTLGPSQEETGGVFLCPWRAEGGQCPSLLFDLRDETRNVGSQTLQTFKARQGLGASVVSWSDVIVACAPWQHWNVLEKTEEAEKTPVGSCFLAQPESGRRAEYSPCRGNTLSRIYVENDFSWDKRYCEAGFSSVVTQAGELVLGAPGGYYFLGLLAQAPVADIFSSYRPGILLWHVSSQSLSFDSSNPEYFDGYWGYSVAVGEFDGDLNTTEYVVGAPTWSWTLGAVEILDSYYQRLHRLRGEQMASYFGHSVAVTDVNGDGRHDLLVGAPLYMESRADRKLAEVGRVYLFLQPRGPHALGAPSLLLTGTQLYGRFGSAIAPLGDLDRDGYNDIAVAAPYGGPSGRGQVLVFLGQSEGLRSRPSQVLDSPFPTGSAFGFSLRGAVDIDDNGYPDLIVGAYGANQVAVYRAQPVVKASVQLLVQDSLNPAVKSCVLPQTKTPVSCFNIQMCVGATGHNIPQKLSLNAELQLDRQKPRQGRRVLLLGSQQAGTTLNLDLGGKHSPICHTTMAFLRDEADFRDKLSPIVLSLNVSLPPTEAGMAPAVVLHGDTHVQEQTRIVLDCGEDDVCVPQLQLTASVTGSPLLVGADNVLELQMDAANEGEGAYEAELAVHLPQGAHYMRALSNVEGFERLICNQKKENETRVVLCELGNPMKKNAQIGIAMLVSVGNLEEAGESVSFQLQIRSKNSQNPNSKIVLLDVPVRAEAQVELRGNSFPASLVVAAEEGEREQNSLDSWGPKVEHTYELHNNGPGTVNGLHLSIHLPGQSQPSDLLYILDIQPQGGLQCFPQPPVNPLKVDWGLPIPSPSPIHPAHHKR
T1 sequence (P08514 891-1039 partner limits assumed): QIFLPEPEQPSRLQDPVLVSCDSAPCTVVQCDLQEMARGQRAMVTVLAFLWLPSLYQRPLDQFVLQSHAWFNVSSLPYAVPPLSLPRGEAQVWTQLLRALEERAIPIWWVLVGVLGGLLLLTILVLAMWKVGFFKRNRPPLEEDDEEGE
T1 sequence (P05106 27-788): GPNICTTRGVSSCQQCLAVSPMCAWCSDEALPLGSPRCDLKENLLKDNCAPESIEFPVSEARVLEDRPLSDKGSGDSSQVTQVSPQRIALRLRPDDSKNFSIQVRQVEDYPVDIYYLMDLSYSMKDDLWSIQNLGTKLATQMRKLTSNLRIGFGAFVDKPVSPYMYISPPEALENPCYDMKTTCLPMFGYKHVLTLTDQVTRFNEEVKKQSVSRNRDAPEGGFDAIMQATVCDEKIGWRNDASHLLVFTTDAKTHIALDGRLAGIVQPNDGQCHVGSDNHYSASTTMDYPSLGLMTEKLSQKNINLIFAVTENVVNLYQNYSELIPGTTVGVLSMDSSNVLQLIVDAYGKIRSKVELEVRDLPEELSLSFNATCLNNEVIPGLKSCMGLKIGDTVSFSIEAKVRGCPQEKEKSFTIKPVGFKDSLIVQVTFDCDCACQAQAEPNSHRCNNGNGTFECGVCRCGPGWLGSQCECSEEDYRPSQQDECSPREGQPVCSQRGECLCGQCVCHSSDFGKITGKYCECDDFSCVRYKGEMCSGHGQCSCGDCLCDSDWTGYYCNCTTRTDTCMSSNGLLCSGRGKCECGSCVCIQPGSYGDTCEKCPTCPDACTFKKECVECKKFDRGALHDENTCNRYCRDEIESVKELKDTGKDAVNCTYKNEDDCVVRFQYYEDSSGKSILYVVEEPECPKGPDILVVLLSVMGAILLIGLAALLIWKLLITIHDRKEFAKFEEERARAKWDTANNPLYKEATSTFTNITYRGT

## Cc1ccccc1NC(=O)Nc1ccc(CC(=O)N2CCC[C@H]2C(=O)N[C@H](C)CC(=O)O)cc1 [oMePUPA-V]
Oral availability
  Oral availability: <1%
gpIIbIIIa
  measurable activity against gpIIbIIIa: > 100 µM
gpIIbIIIa; @ 100 μM, Ca+2/Mg+2
  inhibition, platelets (IIbIIIa) fibrinogen aggregation: no inhibition @
gpIIbIIIa; three doses 1, 10 and 100 μM
  inhibition of ADP-induced platelet aggregation (in words): did not inhibit
VLA-4 [1]
  IC50: 6 ± 1 nM
VLA-4 [2]; 1 mM MnCl2, read-out: IC50 ± SD, Jurkat cell VCAM-Ig Binding
  IC50: 8 ± 1 nM
VLA-4 [2]; versus α4β7, VLA-5 and gpIIbIIIa
  specificity for VLA-4: > 10,000 fold
Human ACE
  ACE activity: clean
Human ACE; at 10 μM, HUVEC
  inhibition of human ACE protease activity: no inhibition
VLA-4 [3]
  IC50: 2.7 nM
[4]
  In vitro pharma screen 85 tests: clean
[4]; at 10 μM
  activity in Panlabs and Cerep panels: No significant activity
[5]
  Formulated stability (40° C.), time stable: stable >4 wk
Crystallinity
  Crystallinity: YES
VLA-4 [6]; 1 mM MnCl2, read-out: IC50, Purified VLA-4 VCAM-Ig binding
  IC50: 0.1 nM
VLA-4 [6]; in the presence of Mn+2
  potency on isolated VLA-4 relative to Jurkat cells in the binding assay: 80 fold
VLA-4 [7]
  IC50: 4 ± 2 nM
[8]
  irritant effect, change in airways resistance compared to baseline: lack of change in airways resistance compared to baseline resistance

From patent US6495525B1, “VLA-4 inhibitor: oMePUPA-V” (Biogen, Inc., priority 1998, dated 2002)
